Data reported in the NIST ThermoML archive (doi:10.1016/j.fluid.2017.03.021).

Assays:
[1] = molar heat capacity at constant pressure; conditions: 101.33 kPa, Liquid, DSC
[2] = 101.33 kPa, Liquid; for speed of sound: Sing-around technique in a fixed-path interferometer; for mass density: Vibrating tube method; for viscosity: Falling or rolling sphere viscometry

CCCCn1cc[n+](C(CC)CC)c1.O=S(=O)([N-]S(=O)(=O)C(F)(F)F)C(F)(F)F
Conditions	mass density, [2] [kg/m3]	molar heat capacity at constant pressure, [1] [J/K/mol]	speed of sound, [2] [m/s]	viscosity, [2] [mPa·s]
287.15 K	1329.4	–	1238.8	–
289.15 K	1327.6	–	1233.8	–
291.15 K	1325.8	–	1228.9	–
293.15 K	1324	–	1224.1	159.5
294.15 K	–	692.9	–	148.8
295.15 K	1322.2	694.28	1219.3	–
296.15 K	–	695.14	–	–
297.15 K	1320.4	695.85	1214.5	–
298.15 K	–	696.61	–	118.2
299.15 K	1318.6	697.52	1209.8	–
300.15 K	–	698.18	–	–
301.15 K	1316.8	698.85	1205.1	–
302.15 K	–	699.65	–	–
303.15 K	1315	700.37	1200.4	89.55
304.15 K	–	701.22	–	–
305.15 K	1313.2	701.89	1195.8	–
306.15 K	–	702.56	–	–
307.15 K	1311.5	703.46	1191.2	–
308.15 K	–	704.22	–	–
309.15 K	1309.7	704.93	1186.7	–
310.15 K	–	705.84	–	–
311.15 K	1307.9	706.6	1182.1	–
312.15 K	–	707.21	–	–
313.15 K	1306.2	707.88	1177.6	54.83
314.15 K	–	708.69	–	–
315.15 K	1304.4	709.45	1173.1	–
316.15 K	–	710.35	–	–
317.15 K	1302.6	711.16	1168.6	–
318.15 K	–	711.87	–	–
319.15 K	1300.9	712.97	1164.2	–
320.15 K	–	713.78	–	–
321.15 K	1299.1	714.58	1159.8	–
322.15 K	–	715.35	–	–
323.15 K	1297.4	716.3	1155.4	35.98
324.15 K	–	717.1	–	–
325.15 K	1295.7	718.2	1151	–
326.15 K	–	718.67	–	–
327.15 K	1293.9	719.58	1146.6	–
328.15 K	–	720.2	–	–
329.15 K	1292.2	721.15	1142.3	–
330.15 K	–	721.72	–	–
331.15 K	1290.5	722.48	1137.9	–
332.15 K	–	723.24	–	–
333.15 K	1288.7	723.9	1133.6	25.07
334.15 K	–	724.81	–	–
335.15 K	1287	725.43	1129.3	–
336.15 K	–	726.23	–	–
337.15 K	1285.3	726.9	1125	–
338.15 K	–	727.47	–	–
339.15 K	1283.6	728.09	1120.8	–
340.15 K	–	729.04	–	–
341.15 K	1281.8	729.42	1116.6	–
342.15 K	–	730.13	–	–
343.15 K	1280.1	731.13	1112.4	18.26
344.15 K	–	731.94	–	–
345.15 K	–	732.61	–	–
346.15 K	–	733.37	–	–
347.15 K	–	733.89	–	–
348.15 K	–	734.79	–	–
353.15 K	–	–	–	13.84

CCCCC[n+]1ccn(CCCC)c1.O=S(=O)([N-]S(=O)(=O)C(F)(F)F)C(F)(F)F
Conditions	mass density, [2] [kg/m3]	molar heat capacity at constant pressure, [1] [J/K/mol]	speed of sound, [2] [m/s]
287.15 K	1327.3	–	1239.6
289.15 K	1325.5	–	1234.8
291.15 K	1323.7	–	1230
293.15 K	1321.9	683.58	1225.3
294.15 K	–	684.63	–
295.15 K	1320.1	685.3	1220.6
296.15 K	–	685.96	–
297.15 K	1318.3	686.63	1216
298.15 K	–	687.34	–
299.15 K	1316.5	687.96	1211.3
300.15 K	–	688.62	–
301.15 K	1314.7	689.29	1206.7
302.15 K	–	690	–
303.15 K	1312.9	690.67	1202.1
304.15 K	–	691.38	–
305.15 K	1311.1	692.05	1197.6
306.15 K	–	692.76	–
307.15 K	1309.4	693.52	1193
308.15 K	–	694.28	–
309.15 K	1307.6	694.95	1188.5
310.15 K	–	695.57	–
311.15 K	1305.8	696.23	1184
312.15 K	–	697.09	–
313.15 K	1304	697.9	1179.6
314.15 K	–	698.7	–
315.15 K	1302.3	699.42	1175.1
316.15 K	–	700.08	–
317.15 K	1300.5	700.84	1170.7
318.15 K	–	701.65	–
319.15 K	1298.8	702.37	1166.3
320.15 K	–	703.22	–
321.15 K	1297	703.98	1161.8
322.15 K	–	704.74	–
323.15 K	1295.2	705.5	1157.5
324.15 K	–	706.26	–
325.15 K	1293.5	707.07	1153.1
326.15 K	–	707.83	–
327.15 K	1291.7	708.69	1148.7
328.15 K	–	709.54	–
329.15 K	1290	710.35	1144.4
330.15 K	–	711.07	–
331.15 K	1288.3	711.87	1140.1
332.15 K	–	712.64	–
333.15 K	1286.5	713.4	1135.8
334.15 K	–	714.16	–
335.15 K	1284.8	714.87	1131.5
336.15 K	–	715.68	–
337.15 K	1283	716.44	1127.3
338.15 K	–	717.2	–
339.15 K	1281.3	718.01	1123
340.15 K	–	718.67	–
341.15 K	1279.6	719.43	1118.8
342.15 K	–	719.96	–
343.15 K	1277.8	720.62	1114.7
344.15 K	–	721.24	–
345.15 K	–	721.86	–
346.15 K	–	722.48	–
347.15 K	–	723.29	–
348.15 K	–	724.47	–

CCCCn1cc[n+](CCC(C)C)c1.O=S(=O)([N-]S(=O)(=O)C(F)(F)F)C(F)(F)F
Conditions	mass density, [2] [kg/m3]	molar heat capacity at constant pressure, [1] [J/K/mol]	speed of sound, [2] [m/s]
287.15 K	1328.1	–	1243.8
289.15 K	1326.3	–	1238.9
291.15 K	1324.4	–	1234.1
293.15 K	1322.6	681.82	1229.3
294.15 K	–	682.92	–
295.15 K	1320.8	683.63	1224.5
296.15 K	–	684.34	–
297.15 K	1319.1	685.11	1219.8
298.15 K	–	685.77	–
299.15 K	1317.3	686.48	1215.1
300.15 K	–	687.15	–
301.15 K	1315.5	687.82	1210.4
302.15 K	–	688.48	–
303.15 K	1313.7	689.15	1205.8
304.15 K	–	689.91	–
305.15 K	1311.9	690.67	1201.2
306.15 K	–	691.33	–
307.15 K	1310.2	692.19	1196.6
308.15 K	–	692.95	–
309.15 K	1308.4	693.62	1192
310.15 K	–	694.42	–
311.15 K	1306.6	695.14	1187.5
312.15 K	–	695.9	–
313.15 K	1304.9	696.66	1183
314.15 K	–	697.47	–
315.15 K	1303.1	698.23	1178.4
316.15 K	–	698.94	–
317.15 K	1301.3	699.65	1173.9
318.15 K	–	700.56	–
319.15 K	1299.6	701.27	1169.5
320.15 K	–	702.08	–
321.15 K	1297.8	702.84	1165
322.15 K	–	703.7	–
323.15 K	1296.1	704.55	1160.6
324.15 K	–	705.36	–
325.15 K	1294.3	706.26	1156.2
326.15 K	–	707.07	–
327.15 K	1292.6	707.93	1151.8
328.15 K	–	708.78	–
329.15 K	1290.8	709.59	1147.4
330.15 K	–	710.4	–
331.15 K	1289.1	711.16	1143
332.15 K	–	711.97	–
333.15 K	1287.4	712.68	1138.7
334.15 K	–	713.49	–
335.15 K	1285.6	714.25	1134.3
336.15 K	–	714.92	–
337.15 K	1283.9	715.82	1130
338.15 K	–	716.58	–
339.15 K	1282.2	717.34	1125.7
340.15 K	–	718.15	–
341.15 K	1280.4	718.86	1121.5
342.15 K	–	719.53	–
343.15 K	1278.7	720.2	1117.3
344.15 K	–	720.81	–
345.15 K	–	721.43	–
346.15 K	–	722.24	–
347.15 K	–	723.05	–
348.15 K	–	724.28	–
